Assay results taken from ChEMBL document CHEMBL4477227, “Synthesis and antibacterial evaluation of macrocyclic diarylheptanoid derivatives” (Bioorg Med Chem Lett, 2016).
In brackets after ≈: the same amount, converted by molar mass.

Key:
Klebsiella pneumoniae = assay: Antibacterial activity against Klebsiella pneumoniae ATCC 33495 by microbroth dilution method; assay type: functional
Proteus mirabilis = assay: Antibacterial activity against Proteus mirabilis ATCC 25933 by microbroth dilution method; assay type: functional
Burkholderia cepacia = assay: Antibacterial activity against Burkholderia cepacia ATCC 25416 by microbroth dilution method; assay type: functional
Staphylococcus aureus [1] = assay: Antibacterial activity against methicillin-resistant Staphylococcus aureus NRS70 by microbroth dilution method; assay type: functional
Proteus vulgaris = assay: Antibacterial activity against Proteus vulgaris ATCC 33420 by microbroth dilution method; assay type: functional
Staphylococcus aureus [2] = assay: Antibacterial activity against methicillin-sensitive Staphylococcus aureus ATCC 29213 by microbroth dilution method; assay type: functional
Bacillus anthracis = assay: Antibacterial activity against Bacillus anthracis Sterne 34F2 by microbroth dilution method; assay type: functional
Streptococcus pneumoniae = assay: Antibacterial activity against Streptococcus pneumoniae R6 by microbroth dilution method; assay type: functional
Enterococcus faecalis = assay: Antibacterial activity against Enterococcus faecalis ATCC 33186 by microbroth dilution method; assay type: functional
Escherichia coli [3] = assay: Antibacterial activity against Escherichia coli K-12 by microbroth dilution method; assay type: functional
[4] = tested on: Mycobacterium tuberculosis; assay: Antitubercular activity against Mycobacterium tuberculosis H37Rv by microbroth dilution method; assay type: functional
Escherichia coli [5] = assay: Antibacterial activity against Escherichia coli harboring TolC deletion mutant by microbroth dilution method; assay type: functional
Streptococcus pyogenes = assay: Antibacterial activity against Streptococcus pyogenes ATCC 700294 by microbroth dilution method; assay type: functional
Pseudomonas aeruginosa = assay: Antibacterial activity against Pseudomonas aeruginosa PAO1 by microbroth dilution method; assay type: functional
Bacillus subtilis = assay: Antibacterial activity against Bacillus subtilis ATCC 23857 by microbroth dilution method; assay type: functional
Acinetobacter baumannii = assay: Antibacterial activity against Acinetobacter baumannii ATCC 19606 by microbroth dilution method; assay type: functional, ATCC 19606 = CIP 70.34 = JCM 6841
[6] = Staphylococcus aureus, NRS70, read-out: MIC
[7] = Staphylococcus aureus, ATCC 29213, read-out: MIC
[8] = Bacillus anthracis, Sterne 34F2, read-out: MIC
[9] = Streptococcus pneumoniae, R6, read-out: MIC
[10] = Enterococcus faecalis, ATCC 33186, read-out: MIC
[11] = Mycobacterium tuberculosis, H37Rv, read-out: MIC
[12] = Escherichia coli, read-out: MIC
[13] = Streptococcus pyogenes, ATCC 700294, read-out: MIC
[14] = Bacillus subtilis, ATCC 23857, read-out: MIC
[15] = Acinetobacter baumannii, ATCC 19606 = CIP 70.34 = JCM 6841, read-out: MIC

Compound	MIC (Klebsiella pneumoniae) [µg/mL]	MIC (Proteus mirabilis) [µg/mL]	MIC (Burkholderia cepacia) [µg/mL]	MIC (Staphylococcus aureus [1]; [6]) [µg/mL]	MIC (Proteus vulgaris) [µg/mL]	MIC (Staphylococcus aureus [2]; [7]) [µg/mL]	MIC (Bacillus anthracis; [8]) [µg/mL]	MIC (Streptococcus pneumoniae; [9]) [µg/mL]	MIC (Enterococcus faecalis; [10]) [µg/mL]	MIC (Escherichia coli [3]) [µg/mL]	MIC [4, 11] [µg/mL]	MIC (Escherichia coli [5]; [12]) [µg/mL]	MIC (Streptococcus pyogenes; [13]) [µg/mL]	MIC (Pseudomonas aeruginosa) [µg/mL]	MIC (Bacillus subtilis; [14]) [µg/mL]	MIC (Acinetobacter baumannii; [15]) [µg/mL]	MIC (Escherichia coli [5]) [µg/mL]	MIC (Bacillus subtilis) [µg/mL]	other results
COc1ccc2cc1Oc1cc(ccc1OC)CCC(NCCc1ccc(O)cc1)CCCC2 (stereo not given)	> 100	> 100	> 100	100 (≈ 217 µM)	> 100	> 100	50 (≈ 108 µM)	100 (≈ 217 µM)	100 (≈ 217 µM)	> 100	100 (≈ 217 µM)	100 (≈ 217 µM)	100 (≈ 217 µM)	> 100	50 (≈ 108 µM)	> 100			
COc1ccc(CCNC2CCCCc3ccc(OC)c(c3)Oc3cc(ccc3OC)CC2)cc1OC (stereo not given)	> 100	> 100	> 100	> 100	> 100	> 100	> 100	> 100	> 100	> 100	100 (≈ 198 µM)	> 100	> 100	> 100	> 100	> 100			
COc1ccc2cc1Oc1cc(ccc1OC)CCC(OC(C)=O)CCCC2 (stereo not given)	> 100	> 100	> 100	> 100	> 100	> 100	> 100	> 100	> 100	> 100	> 100	12.5 (≈ 32.5 µM)	> 100	> 100	> 100	> 100			
COc1ccc2cc1Oc1cc(ccc1OC)CCC(N[C@@H]1CCCc3ccccc31)CCCC2 (stereo in doubt; 25)	> 100	> 100	> 100		> 100	> 100				> 100	> 100			> 100			100 (≈ 212 µM)	6.25 (≈ 13.3 µM)	
COc1ccc2cc1Oc1cc(ccc1OC)CCC(NCCc1ccccc1)CCCC2 (stereo not given)											12.5 to 50 (≈ 28.1 to 112 µM)								
COc1ccc2cc1Oc1cc(ccc1OC)CCC(NC(=O)NCCc1ccc(F)cc1)CCCC2 (stereo not given)	> 100	> 100	> 100	> 100	> 100	> 100	> 100	> 100	> 100	> 100	> 100	> 100	> 100	> 100	> 100	> 100			
COc1ccc2cc1Oc1cc(ccc1OC)CCC(N[C@H]1CCCc3ccccc31)CCCC2 (stereo in doubt; 28)																	25 (≈ 53 µM)	>100	MIC (Staphylococcus aureus [1]): >100 µg/mL; MIC (Staphylococcus aureus [2]): >100 µg/mL; MIC (Bacillus anthracis): >100 µg/mL; MIC (Streptococcus pneumoniae): >100 µg/mL; MIC (Enterococcus faecalis): >100 µg/mL; MIC (Streptococcus pyogenes): >100 µg/mL
CCCCCCNC1CCCCc2ccc(OC)c(c2)Oc2cc(ccc2OC)CC1 (stereo not given)											12.5 to 50 (≈ 29.4 to 117 µM)								
COc1ccc2cc1Oc1cc(ccc1OC)CCC(N[C@@H]1CCCc3ccccc31)CCCC2 (stereo in doubt; 26)																	25 (≈ 53 µM)	25 (≈ 53 µM)	MIC (Streptococcus pneumoniae): 50 µg/mL (≈ 106 µM); MIC [4]: 50 µg/mL (≈ 106 µM); MIC (Acinetobacter baumannii): >100 µg/mL
COc1ccc2cc1Oc1cc(ccc1OC)CCC(NCc1ccccc1)CCCC2 (stereo not given)											12.5 to 50 (≈ 29 to 116 µM)								
